From ChEMBL document CHEMBL1201862, “PubChem BioAssay data set” (2004)
The source made the active and inactive calls.

Experiments:
[1] = molecular target: T1, Histone-lysine N-methyltransferase NSD2 (Homo sapiens, UniProt O96028); format: biochemical
T1 sequence (O96028 whole entry): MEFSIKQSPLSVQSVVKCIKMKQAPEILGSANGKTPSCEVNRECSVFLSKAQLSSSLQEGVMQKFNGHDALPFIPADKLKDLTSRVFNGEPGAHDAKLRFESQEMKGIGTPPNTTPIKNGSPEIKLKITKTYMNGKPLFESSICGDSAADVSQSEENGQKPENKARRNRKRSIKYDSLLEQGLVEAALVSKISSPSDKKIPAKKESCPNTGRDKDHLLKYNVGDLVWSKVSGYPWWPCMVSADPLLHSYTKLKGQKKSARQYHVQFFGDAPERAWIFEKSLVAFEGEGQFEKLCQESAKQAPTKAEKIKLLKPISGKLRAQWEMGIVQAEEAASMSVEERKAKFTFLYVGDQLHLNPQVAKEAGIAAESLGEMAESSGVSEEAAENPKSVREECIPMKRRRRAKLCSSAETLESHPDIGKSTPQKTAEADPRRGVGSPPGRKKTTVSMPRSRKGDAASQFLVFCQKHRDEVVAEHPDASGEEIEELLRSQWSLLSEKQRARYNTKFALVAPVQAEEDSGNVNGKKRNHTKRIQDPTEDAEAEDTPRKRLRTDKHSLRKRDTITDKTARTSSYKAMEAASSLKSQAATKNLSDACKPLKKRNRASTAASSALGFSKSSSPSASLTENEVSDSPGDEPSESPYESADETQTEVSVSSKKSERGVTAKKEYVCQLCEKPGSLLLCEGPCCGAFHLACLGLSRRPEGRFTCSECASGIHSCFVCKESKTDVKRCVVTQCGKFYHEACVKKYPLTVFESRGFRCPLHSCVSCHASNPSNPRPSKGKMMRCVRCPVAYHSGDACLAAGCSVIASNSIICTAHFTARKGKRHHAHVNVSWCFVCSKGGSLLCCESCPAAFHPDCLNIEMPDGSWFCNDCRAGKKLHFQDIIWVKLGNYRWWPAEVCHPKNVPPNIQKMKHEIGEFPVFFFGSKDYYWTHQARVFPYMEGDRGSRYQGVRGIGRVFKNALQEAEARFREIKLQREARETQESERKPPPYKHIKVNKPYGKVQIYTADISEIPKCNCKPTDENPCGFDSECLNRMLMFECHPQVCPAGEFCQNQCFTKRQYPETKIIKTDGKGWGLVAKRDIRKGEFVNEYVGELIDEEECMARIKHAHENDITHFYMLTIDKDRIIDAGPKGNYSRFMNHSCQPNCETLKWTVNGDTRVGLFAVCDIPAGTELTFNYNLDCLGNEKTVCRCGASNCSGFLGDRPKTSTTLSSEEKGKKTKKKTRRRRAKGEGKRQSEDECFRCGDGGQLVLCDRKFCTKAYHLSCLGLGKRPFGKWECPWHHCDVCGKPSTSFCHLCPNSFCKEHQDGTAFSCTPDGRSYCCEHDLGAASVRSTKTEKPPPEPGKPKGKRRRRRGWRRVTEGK

[2] = Reduced DLD-1 viability, concentration-response, CellTiter-Glo luminescence (AID 1117352); format: functional
[3] = molecular target: T2, Polyadenylate-binding protein 1 (Homo sapiens, UniProt P11940); experiment: MLLE domain peptide-binding blockers, IC50 – biochemical, fluorescence polarization, FITC-PAM2 peptide, dose response (AID 602259); format: functional; conditions: read-out: IC50_Mean
[4] = molecular target: T3, Long-chain-fatty-acid--AMP ligase FadD28 (Mycobacterium tuberculosis, UniProt P9WQ59); experiment: Fluorescence polarization aasay to screen for inhibitors that compete for the binding of FadD28 to a bisubstrate Measured in Biochemical System Using Plate Reader - 2147-01_Inhibitor_Dose_CherryPick_Activity.; format: functional, Mycobacterium tuberculosis H37Rv
T3 sequence (P9WQ59 whole entry): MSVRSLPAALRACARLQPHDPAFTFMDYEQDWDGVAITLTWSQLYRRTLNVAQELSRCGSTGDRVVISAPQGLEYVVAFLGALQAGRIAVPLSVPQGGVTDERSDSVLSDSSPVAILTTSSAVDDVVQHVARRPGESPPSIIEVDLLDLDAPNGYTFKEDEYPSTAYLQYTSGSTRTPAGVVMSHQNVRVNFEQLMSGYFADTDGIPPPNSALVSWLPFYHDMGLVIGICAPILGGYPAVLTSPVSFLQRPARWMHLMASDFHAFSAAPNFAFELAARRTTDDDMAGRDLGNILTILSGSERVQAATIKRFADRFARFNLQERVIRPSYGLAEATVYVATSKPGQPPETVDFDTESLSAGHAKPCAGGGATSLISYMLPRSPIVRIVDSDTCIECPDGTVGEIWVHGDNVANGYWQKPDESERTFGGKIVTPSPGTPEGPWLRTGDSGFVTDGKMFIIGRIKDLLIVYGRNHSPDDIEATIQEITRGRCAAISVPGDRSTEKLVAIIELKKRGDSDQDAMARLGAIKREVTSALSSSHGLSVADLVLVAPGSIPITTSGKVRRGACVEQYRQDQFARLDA

[5] = cytotoxicity toward Colo320 cells – cell-based, CellTiter-Glo luminescence, IC50, dose response (AID 1117334); format: functional; conditions: COLO 320
[6] = cytotoxicity toward HT-29 cells – cell-based, CellTiter-Glo luminescence, IC50, dose response (AID 1117330); format: functional
[7] = molecular target: T4, Microphthalmia-associated transcription factor (Homo sapiens, UniProt O75030); experiment: reducers of TRPM1 reporter luminescence, concentration series – cell-based, SK-MEL-5, cherry-picked, set 3, MITF inhibitor project, dose response (AID 493073); format: functional;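 further: SK-MEL-5 melanoma cells with luciferase driven by the MITF target TRPM1 promoter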
T4 sequence (O75030 whole entry): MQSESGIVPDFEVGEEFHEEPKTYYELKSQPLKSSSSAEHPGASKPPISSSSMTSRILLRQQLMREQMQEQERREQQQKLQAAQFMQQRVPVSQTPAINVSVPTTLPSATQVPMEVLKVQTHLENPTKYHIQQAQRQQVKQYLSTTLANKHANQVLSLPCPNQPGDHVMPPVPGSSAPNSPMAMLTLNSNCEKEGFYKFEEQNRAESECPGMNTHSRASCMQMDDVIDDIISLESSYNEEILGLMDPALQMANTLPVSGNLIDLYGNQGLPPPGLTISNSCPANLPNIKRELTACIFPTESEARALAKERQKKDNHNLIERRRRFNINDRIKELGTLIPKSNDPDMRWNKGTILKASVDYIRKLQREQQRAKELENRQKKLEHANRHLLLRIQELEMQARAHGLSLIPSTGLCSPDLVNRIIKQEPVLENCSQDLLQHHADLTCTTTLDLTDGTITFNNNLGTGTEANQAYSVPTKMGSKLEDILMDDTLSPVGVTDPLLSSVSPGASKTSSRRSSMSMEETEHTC

[8] = SNU-C1 cell viability reduction, dose response, CellTiter-Glo luminescence (AID 1117323); format: functional, cell-based
[9] = rise of 2N DNA cells, HeLa – IC50, dose response (AID 1117349); format: functional, cell-based
[10] = RKO cell viability reduction, dose response, CellTiter-Glo luminescence (AID 1117322); format: functional
[11] = molecular target: T2, Polyadenylate-binding protein 1; experiment: MLLE binding blockers, Cy5 peptide tracer – biochemical, fluorescence polarization, Cy5-PAM2 peptide, secondary, miRNA deadenylation inhibitor project, dose response (AID 602260); format: functional; conditions: read-out: IC50_Mean
[12] = CellTiter-Glo luminescence survival assay, SW480 colon tumor line, concentration-response curve, half-maximal inhibitory concentration (AID 1117338); format: functional
[13] = cytotoxicity toward HCT116 cells – cell-based, CellTiter-Glo luminescence, IC50, dose response (AID 1117332); format: functional; conditions: HCT-116
[14] = rise of 4N DNA cells, HeLa – IC50, dose response (AID 1117351); format: functional, cell-based
[15] = viability loss in Vero cells – cytotoxicity control for Vif-APOBEC3G degradation inhibitor project, dose response (AID 1117358); format: functional; conditions: Vero
[16] = molecular target: E3 ubiquitin-protein ligase Mdm2 (Homo sapiens, UniProt Q00987); experiment: MDM2-luc reporter signal enhancers, multi-concentration potency testing, MDM2 ubiquitin-protein ligase inhibitor program, whole-cell format, luminescence detection, 384-well microplate (AID 1394); format: functional;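 further: MDM2 E3 inhibitors raise luminescence so EC50 is for signal enhancement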
[17] = molecular target: T5, Cytochrome P450 1A2 (Homo sapiens, UniProt P05177);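 further: PubChem cytochrome P450 panel assay, CYP1A2 panel member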
T5 sequence (P05177 whole entry): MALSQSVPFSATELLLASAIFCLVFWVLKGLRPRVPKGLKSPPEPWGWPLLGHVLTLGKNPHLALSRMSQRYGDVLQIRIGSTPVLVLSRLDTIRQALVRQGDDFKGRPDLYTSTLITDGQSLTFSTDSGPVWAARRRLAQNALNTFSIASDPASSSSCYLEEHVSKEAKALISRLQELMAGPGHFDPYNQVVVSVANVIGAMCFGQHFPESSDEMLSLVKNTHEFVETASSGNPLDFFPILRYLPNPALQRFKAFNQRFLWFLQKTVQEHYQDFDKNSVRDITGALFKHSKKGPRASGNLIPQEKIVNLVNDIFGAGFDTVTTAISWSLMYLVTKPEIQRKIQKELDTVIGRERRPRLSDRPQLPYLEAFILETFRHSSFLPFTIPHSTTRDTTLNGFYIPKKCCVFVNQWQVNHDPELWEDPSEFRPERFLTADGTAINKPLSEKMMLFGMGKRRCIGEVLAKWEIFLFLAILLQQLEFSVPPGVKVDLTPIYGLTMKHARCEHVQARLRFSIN

[18] = molecular target: Cytochrome P450 2C19 (Homo sapiens, UniProt P33261); experiment: Cytochrome panel assay with activity outcomes. Panel member name: p450-cyp2c19 Compounds with AC50 equal or less than 10 uM are considered active; format: functional; conditions: read-out: AC50
[19] = Luminescence Cell-Based Dose Response HTS to Identify Inhibitors of 5'UTR Stem-Loop Driven Prion Protein mRNA Translation in H4 Neuroglioblastoma Cells. [Related pubchem assays: 1827 (Project Summary), 1813 (Primary HTS)]; format: functional
[20] = luciferase reporter signal suppression in cells – H4 neuroglioma cells, luminescence, dose response (AID 1990); format: functional, cell-based
[21] = alpha-synuclein stem-loop luciferase translation blockers – H4 neuroglioma cells, luminescence, confirmation (AID 1988); format: functional, cell-based
[22] = blockers of HIV-1 envelope-mediated cell-cell fusion – cherry-pick, dose response (AID 652057); format: functional, cell-based
[23] = blockers of HIV-1 ZM109 envelope-driven cell-cell fusion – HeLa effector, CEM target cells, luciferase, cherry-pick, dose response (AID 652058); format: functional, cell-based;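 further: luciferase signal from HIV-1 Env mediated cell-cell fusion of effector and target cells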
[24] = HEK-293T cell viability reduction – luminescence, B-cell screen hits, cytotoxicity control for BCR NF-kB inhibitor project, dose response (AID 489021); format: functional, cell-based;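 further: HEK-293T cells carrying an NF-kB luciferase reporter; cells exposed to compound for about 14 hours before viability readout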
[25] = off-target signal loss in HeLa-CEM21 co-culture – HeLa F-luc CTL cells, cherry-picked, counter-screen for HIV-1 Env fusion inhibitor project, dose response (AID 652040); format: functional, cell-based;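 further: potency for signal decrease marking cytotoxic or nonspecific inhibition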
[26] = blockade of melanocortin 4 receptor signaling – cell-based, plate reader, cherry pick, counter-screen for LGR2 antagonist project, dose response (AID 743444); format: functional;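 further: transfected HEK 293 cells stimulated with alpha-MSH peptide; potency of inhibitors of the alpha-MSH evoked signal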
[27] = PAX8-dependent cell viability loss – plate reader, dry powder, dose response (AID 743049); format: functional, cell-based
[28] = HIV-1 AD8 envelope cell-cell fusion blockers – cherry-pick, dose response (AID 652062); format: functional, cell-based;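 further: luciferase signal from cell-cell fusion driven by HIV-1 clade B AD8 Env; potency is for inhibitors of fusion seen as a drop in luminescence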
[29] = molecular target: Paired box protein Pax-8 (Homo sapiens, UniProt Q06710); experiment: PAX8 transcriptional activity inhibition in RMG-I – RMG-I cells, luciferase, cherry-pick, dose response (AID 687027); format: functional, cell-based;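 further: luciferase reporter driven by Pax8 target thyroperoxidase promoter measured by SteadyGlo luminescence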
[30] = molecular target: Heat shock protein HSP 90-alpha (Homo sapiens, UniProt P07900); experiment: Luminescence-based dose response biochemical high throughput screening assay for inhibitors of the Heat Shock Protein 90 (HSP90). [Related pubchem assays: 1831 (Summary AID.), 1846 (Confirmation screen.), 1789 (Primary screen.)]
[31] = PAX5 cellular inhibition readout – cell-based, plate reader, dry powder samples, selectivity assay for PAX8 inhibitor project, dose response (AID 743047); format: functional;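 further: HEK293 cells carrying a Pax5 driven CD19 promoter luciferase reporter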
[32] = blockers of bursicon-stimulated LGR2 cAMP reporter – cell-based, HEK293, CRE-luciferase reporter, cherry pick, set 2, dose response (AID 743343); format: functional;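 further: transfected cells were stimulated with diluted bursicon conditioned medium after compound addition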
[33] = inhibitors acting on PAX2 in cells – cell-based, plate reader, dry powder samples, selectivity assay for PAX8 inhibitor project, dose response (AID 743048); format: functional;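 further: HEK293 cells carrying a WT1 promoter luciferase reporter driven by expressed Pax2; potency is for inhibition of Pax2 driven reporter signal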

T2 sequence (P11940 whole entry, the tested form may be a part): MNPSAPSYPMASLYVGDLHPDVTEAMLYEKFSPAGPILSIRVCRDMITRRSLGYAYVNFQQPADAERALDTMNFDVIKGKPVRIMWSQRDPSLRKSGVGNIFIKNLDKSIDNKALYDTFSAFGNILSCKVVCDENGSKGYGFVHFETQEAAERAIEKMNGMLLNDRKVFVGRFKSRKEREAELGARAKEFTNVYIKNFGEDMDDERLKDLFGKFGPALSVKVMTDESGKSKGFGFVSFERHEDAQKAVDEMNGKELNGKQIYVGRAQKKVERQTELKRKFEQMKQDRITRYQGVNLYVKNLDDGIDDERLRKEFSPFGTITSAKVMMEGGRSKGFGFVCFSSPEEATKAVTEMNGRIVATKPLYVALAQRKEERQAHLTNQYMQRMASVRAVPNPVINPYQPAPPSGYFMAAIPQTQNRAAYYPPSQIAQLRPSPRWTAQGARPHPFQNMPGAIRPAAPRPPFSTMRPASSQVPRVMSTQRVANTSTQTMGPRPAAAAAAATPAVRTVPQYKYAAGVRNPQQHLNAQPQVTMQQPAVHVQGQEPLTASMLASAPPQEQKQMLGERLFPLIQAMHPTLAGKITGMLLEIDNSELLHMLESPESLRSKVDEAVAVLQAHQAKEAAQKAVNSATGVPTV
Chain of Cytochrome P450 2C19 (P33261 whole entry): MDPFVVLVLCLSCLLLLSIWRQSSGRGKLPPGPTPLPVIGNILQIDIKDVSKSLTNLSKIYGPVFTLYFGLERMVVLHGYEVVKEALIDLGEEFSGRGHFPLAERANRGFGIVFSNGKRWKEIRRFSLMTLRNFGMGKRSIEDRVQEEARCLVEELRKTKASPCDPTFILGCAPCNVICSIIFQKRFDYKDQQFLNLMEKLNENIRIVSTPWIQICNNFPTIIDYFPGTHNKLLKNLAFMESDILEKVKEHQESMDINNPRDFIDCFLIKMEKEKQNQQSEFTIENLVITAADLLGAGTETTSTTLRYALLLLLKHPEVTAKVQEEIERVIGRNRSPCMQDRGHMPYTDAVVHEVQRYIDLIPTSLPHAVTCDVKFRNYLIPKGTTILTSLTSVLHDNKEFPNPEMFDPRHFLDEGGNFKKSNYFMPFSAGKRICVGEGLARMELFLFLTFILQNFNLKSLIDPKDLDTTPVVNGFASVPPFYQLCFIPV
Chain of Paired box protein Pax-8 (Q06710 whole entry): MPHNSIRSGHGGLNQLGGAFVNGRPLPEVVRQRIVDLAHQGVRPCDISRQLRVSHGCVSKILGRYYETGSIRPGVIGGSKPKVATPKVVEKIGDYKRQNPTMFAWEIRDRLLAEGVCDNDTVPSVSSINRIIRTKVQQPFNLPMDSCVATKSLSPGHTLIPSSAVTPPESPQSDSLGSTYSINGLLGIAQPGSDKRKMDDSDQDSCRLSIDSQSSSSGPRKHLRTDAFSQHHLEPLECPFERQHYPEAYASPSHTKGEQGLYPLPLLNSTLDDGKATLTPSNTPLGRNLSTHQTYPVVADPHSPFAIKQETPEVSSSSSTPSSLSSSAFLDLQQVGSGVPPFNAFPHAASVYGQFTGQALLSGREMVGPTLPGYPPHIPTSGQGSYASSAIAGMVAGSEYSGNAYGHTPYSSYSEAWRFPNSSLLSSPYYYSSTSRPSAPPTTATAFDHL
Chain of E3 ubiquitin-protein ligase Mdm2 (Q00987 whole entry): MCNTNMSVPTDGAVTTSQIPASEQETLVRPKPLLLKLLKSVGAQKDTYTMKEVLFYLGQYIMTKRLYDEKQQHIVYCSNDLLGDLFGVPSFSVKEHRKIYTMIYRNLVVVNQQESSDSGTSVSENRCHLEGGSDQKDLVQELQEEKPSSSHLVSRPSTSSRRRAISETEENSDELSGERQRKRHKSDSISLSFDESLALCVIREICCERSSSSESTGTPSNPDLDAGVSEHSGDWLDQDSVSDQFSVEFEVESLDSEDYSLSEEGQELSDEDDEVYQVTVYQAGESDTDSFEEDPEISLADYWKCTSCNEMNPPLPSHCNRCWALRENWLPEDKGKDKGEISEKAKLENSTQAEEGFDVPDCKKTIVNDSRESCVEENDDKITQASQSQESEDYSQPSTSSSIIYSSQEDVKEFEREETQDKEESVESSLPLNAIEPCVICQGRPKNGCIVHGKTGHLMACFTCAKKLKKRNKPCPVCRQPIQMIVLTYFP

CC[n+]1c(-c2ccccc2)c2cc(N)ccc2c2ccc(N)cc21 [HOMIDIUM BROMIDE]
inactive: IC50 [2] > 20 µM | IC50 [3] 40.4 µM | IC50 [5] > 20 µM | IC50 [6] > 20 µM | IC50 [8] > 20 µM | IC50 [9] > 10 µM | IC50 [11] > 66 µM | IC50 [12] > 20 µM | IC50 [14] > 10 µM
active: AC50 [1] 0.293 µM | AC50 [4] 27.4 µM | AC50 [7] 2.42 µM | IC50 [10] 3.35 µM | IC50 [13] 4.44 µM

CC(C)(C)c1ccc(-c2nnc(SCCC#N)n2C2CCCC2)cc1
active: CC50 [15] > 40 µM

CCN(CC(=O)Nc1ccc(N2CCOCC2)cc1)Cc1nc2ccccc2c(=O)[nH]1
0.03 µM (not active): EC50 [16]
inconclusive: AC50 [17] 20 µM | AC50 [18] 22.4 µM

COc1cc(NC(=O)NCCN2CCN(c3ccc(Cl)cc3)CC2)ccc1C
active: EC50 [20] 20.5 µM | CC50 [15] > 40 µM
> 120 µM (not active): EC50 [19] | EC50 [21]

O=C(CN1C(=O)c2ccccc2S1(=O)=O)c1ccccc1Cl
inactive: IC50 [24] > 80 µM | AC50 [27] > 100 µM
active: AC50 [22] 2.17 µM | AC50 [23] 12.5 µM | AC50 [25] 1.52 µM | AC50 [26] 0.805 µM | EC50 [19] 0.364 µM | EC50 [20] 0.283 µM | AC50 [28] 4.22 µM | AC50 [29] 7.18 µM | IC50 [30] 4.2 µM | AC50 [31] 7.1 µM | AC50 [32] 0.665 µM | EC50 [21] 0.104 µM | AC50 [33] 9.61 µM
